Structures are written as SMILES.

Here are results for 18 molecules from patent publication US10800784B2, “Nitrogen-containing heterocyclic amide compound and pharmaceutical use thereof” (Japan Tobacco Inc., priority 2018, dated 2020).

One test has as its target human PDHK1 (hPDHK1) (Homo sapiens (Human), UniProt Q15118). The test is described as follows: Inhibitory action of PDHK1 activity in vitro (residual PDH activity after PDHK reaction). Format: biochemical. As to conditions: for IC50: PDH/hPDHK1 complex solution, PDHK reaction at room temperature for 45 min, NADH absorbance at 340 nm, read-out: hPDK1 IC50; for inhibition at 0.003 µM: at 3 nmol/L, shown when IC50 value could not be calculated, read-out: hPDHK1 inhibitory rate at the lowest concentration of the test compound. The method, then: (§1) The inhibitory action of PDHK activity was assessed indirectly by measuring the residual PDH activity after PDHK reaction in the presence of a test compound.
(Inhibitory Action of PDHK1 Activity)
In the case of human PDHK1 (hPDHK1, NCBI Reference Database Accession number NM_002610.3), a 1.3 kbp fragment encoding this protein was isolated from human liver cDNA by polymerase chain reaction (PCR). Modified hPDHK1 cDNA wherein FLAG-Tag sequence was added to the N terminus was prepared by PCR and ligated to the NdeI/EcoRI site of pET-17b vector (Merck MGaA, model number 69663-3). The recombinant construct was transformed into Escherichia coli DH5a (TOYOBO, model number DNA-903). The recombinant clones were identified, and plasmid DNA was isolated and subjected to the DNA sequence analysis. One clone which had the expected nucleic acid sequence was selected for expression work.
For expression of hPDHK1 activity, Escherichia coli strain BL21(DE3) cells (Merck KGaA, model number 69450-4) were transformed with the pET17b vector containing modified hPDHK1 cDNA. The Escherichia coli were grown to an optical density 0.6 ([…]) at 30° C. Protein expression was induced by the addition of 500 μmol/L isopropyl-β-thiogalactopyranoside. The Escherichia coli were cultured at 20° C. for 17-18 hr and harvested by centrifugation.
The harvested Escherichia coli was resuspended in a suspension buffer (20 mmol/L N-(2-hydroxyethyl)piperazine-N′-2-ethanesulfonic acid-sodium hydroxide (HEPES-NaOH), 500 mmol/L sodium chloride, 1% ethylene glycol, and 0.1% polyoxyethylene-polyoxypropylene block copolymer (Pluronic F-68), complete, EDTA-free (pH 8.0)) and disrupted by a microfluidizer M-110H (MIZUHO INDUSTRIAL CO., LTD.) or ultrasonication. The precipitate was removed by centrifugation and the supernatant was added to DDDDK-tagged Protein PURIFICATION GEL (MBL, model number 3329). DDDDK-tagged Protein PURIFICATION GEL was washed with a washing buffer (20 mmol/L HEPES-NaOH, 500 mmol/L sodium chloride, 1% ethylene glycol, 0.1% pluronic F-68 (pH 8.0)) and the bound protein was eluted with elution buffer 1 (20 mmol/L HEPES-NaOH, 100 μg/mL peptide (amino acid sequence DYKDDDDK) (SEQ ID NO: 1), 500 mmol/L sodium chloride, 1% ethylene glycol, 0.1% pluronic F-68 (pH 8.0)).
The eluted fractions containing FLAG-Tagged protein were pooled, concentrated by an ultrafiltration method, added to a gel filtration column (HiLoad 26/60 Superdex 200 (GE Healthcare, model number 17-1070-01)), and eluted with elution buffer 2 (20 mmol/L HEPES-NaOH, 150 mmol/L sodium chloride, 0.5 mmol/L ethylenediaminetetraacetic acid (EDTA), 1% ethylene glycol, 0.1% pluronic F-68 (pH 8.0)). The eluted fractions were pooled and preserved at −80° C.
0.025 U/mL PDH (porcine heart PDH complex, Sigma P7032) and 0.5 μg/mL hPDHK1 were mixed in an assay buffer (50 mmol/L 3-morpholinopropanesulfonic acid (pH 7.0), 20 mmol/L dipotassium hydrogen phosphate, 60 mmol/L potassium chloride, 2 mmol/L magnesium chloride, 0.4 mmol/L EDTA, 0.2% poloxamer, 2 mmol/L dithiothreitol), and the mixture was incubated at 4° C. overnight to obtain a PDH/hPDHK1 complex solution. In the assay buffer, 0.025 U/mL PDH was mixed and incubated at 4° C. overnight to prepare a PDH solution.
The test compounds were diluted with dimethyl sulfoxide (DMSO). To measure an inhibitory action of the test compound on the PDHK activity in the PDH/hPDHK1 complex solution, PDH/hPDHK1 complex solution (20 μL), test compound (1.5 μL) and 0.353 μmol/L ATP (diluted with assay buffer) (8.5 μL) were added to a 384 well microplate (Greiner Bio-One 781801) and PDHK reaction was performed at room temperature for 45 min (test compound well). DMSO (1.5 μL) was added to control wells instead of test compound. In addition, DMSO (1.5 μL) was added to blank wells instead of the test compound, and PDH solution was added instead of the PDH/hPDHK1 complex solution. […]

In a further test the target is human PDHK2 (hPDHK2) (Homo sapiens (Human), UniProt Q15119). Kind of test: Inhibitory action of PDHK2 activity in vitro (residual PDH activity after PDHK reaction). Format: biochemical. As to conditions: for IC50: PDH/hPDHK2 complex solution, PDHK reaction at room temperature for 45 min, NADH absorbance at 340 nm, read-out: kPDK2 IC50. Here is the method: as §1
(Inhibitory Action of PDHK2 Activity)
In the case of human PDHK2 (hPDHK2, NCBI Reference Database Accession number NM_002611.4), modified hPDHK2 cDNA wherein FLAG-Tag sequence was added to the N terminus of hPDHK2 cDNA clone (pReceiver-M01/PDK2-GeneCopoeia) as the base was prepared by PCR and ligated to the NdeI/EcoRI site of pET-17b vector. The recombinant construct was transformed into Escherichia coli DH5a. The recombinant clones were identified, and plasmid DNA was isolated and subjected to the DNA sequence analysis. One clone which had the expected nucleic acid sequence was selected for expression work.
For expression of hPDHK2 activity, Escherichia coli strain BL21(DE3) cells were transformed with the pET17b vector containing modified hPDHK2 cDNA. The Escherichia coli were grown to an optical density 0.6 ([…]) at 30° C. Protein expression was induced by the addition of 500 μmol/L isopropyl-β-thiogalactopyranoside. The Escherichia coli were cultured at 20° C. for 17-18 hr and harvested by centrifugation. The harvested Escherichia coli was resuspended in a suspension buffer (20 mmol/L HEPES-NaOH, 500 mmol/L sodium chloride, 1% ethylene glycol, 0.1% pluronic F-68 (pH 8.0), cOmplete, EDTA-free (pH 8.0)), and disrupted by a microfluidizer. The precipitate was removed by centrifugation and the supernatant was added to DDDDK-tagged Protein PURIFICATION GEL. DDDDK-tagged Protein PURIFICATION GEL was washed with a washing buffer (20 mmol/L HEPES-NaOH, 500 mmol/L sodium chloride, 1% ethylene glycol, 0.1% pluronic F-68 (pH 8.0)) and the bound protein was eluted with elution buffer 1 (20 mmol/L HEPES-NaOH, 100 μg/mL peptide (amino acid sequence DYKDDDDK) (SEQ ID NO: 1), 500 mmol/L sodium chloride, 1% ethylene glycol, 0.1% pluronic F-68 (pH 8.0)). The eluted fractions containing FLAG-Tagged protein were pooled, concentrated by an ultrafiltration method, added to a gel filtration column (HiLoad 26/60 Superdex 200), and eluted with elution buffer 2 (20 mmol/L HEPES-NaOH, 150 mmol/L sodium chloride, 0.5 mmol/L ethylenediaminetetraacetic acid (EDTA), 1% ethylene glycol, 0.1% pluronic F-68 (pH 8.0)). The eluted fractions were pooled and preserved at −80° C.
0.025 U/mL PDH and 0.5 μg/mL hPDHK2 were mixed in an assay buffer (50 mmol/L 3-morpholinopropanesulfonic acid (pH 7.0), 20 mmol/L dipotassium hydrogen phosphate, 60 mmol/L potassium chloride, 2 mmol/L magnesium chloride, 0.4 mmol/L EDTA, 0.2% poloxamer, 2 mmol/L dithiothreitol), and the mixture was incubated at 4° C. overnight to obtain a PDH/hPDHK2 complex solution. In the assay buffer, 0.025 U/mL PDH was mixed and incubated at 4° C. overnight to prepare a PDH solution.
The test compounds were diluted with DMSO. To measure an inhibitory action of the test compound on the PDHK activity in the PDH/hPDHK2 complex solution, PDH/hPDHK2 complex solution (20 μL), test compound (1.5 μL) and 1.06 μmol/L ATP (diluted with assay buffer) (8.5 μL) were added to a 384 well microplate and PDHK reaction was performed at room temperature for 45 min (test compound well). DMSO (1.5 μL) was added to control wells instead of test compound. In addition, DMSO (1.5 μL) was added to blank wells instead of the test compound, and PDH solution was added instead of the PDH/hPDHK2 complex solution. To measure an inhibitory action of the test compound on the PDHK activity inherent in the PDH solution, a test compound was added and the PDH solution instead of the PDH/hPDHK2 complex solution was added to a blank+test compound well.
Then, 10 μL of substrates (5 mmol/L sodium pyruvate, 5 mmol/L Coenzyme A, 12 mmol/L NAD, 5 mmol/L thiamine pyrophosphate, diluted with assay buffer) were added. The mixture was incubated at room temperature for 90 min, and the residual PDH activity was measured. […]

Sequence of human PDHK1 (hPDHK1) (Q15118 29-436): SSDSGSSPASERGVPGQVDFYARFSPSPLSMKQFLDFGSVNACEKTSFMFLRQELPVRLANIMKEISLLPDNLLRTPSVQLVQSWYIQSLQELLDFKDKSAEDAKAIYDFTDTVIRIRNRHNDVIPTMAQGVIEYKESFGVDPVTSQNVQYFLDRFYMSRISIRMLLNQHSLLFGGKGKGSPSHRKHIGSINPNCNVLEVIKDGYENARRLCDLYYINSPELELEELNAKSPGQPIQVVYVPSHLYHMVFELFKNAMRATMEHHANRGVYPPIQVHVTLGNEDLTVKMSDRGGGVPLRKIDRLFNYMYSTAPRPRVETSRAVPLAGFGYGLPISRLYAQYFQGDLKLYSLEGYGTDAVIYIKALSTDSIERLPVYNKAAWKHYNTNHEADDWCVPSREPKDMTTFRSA

Consider `C[C@H]1CN(C(=O)c2ccc(-c3ccc(C#N)cc3)cn2)Cc2cnc([C@@](C)(O)C(F)(F)F)n21` [Example 45], for which the half-maximal inhibitory concentration (IC50) stood at 9 nM at human PDHK1 (hPDHK1) and 8 nM on human PDHK2 (hPDHK2).
Taken in the same sequence, the figures for `C[C@H]1CN(C(=O)c2ccnc(N3CCC(F)(F)CC3)c2)Cc2cnc([C@@](C)(O)C(F)(F)F)n21` [Example 95] were 6 nM and 15 nM.
For `C[C@H]1CN(C(=O)c2cc3n(n2)CCC3)Cc2onc([C@@](C)(O)C(F)(F)F)c21` [Example 100], the IC50 on human PDHK1 (hPDHK1) turned out to be 4 nM; on human PDHK2 (hPDHK2), 5 nM.
As for `C[C@H]1CN(C(=O)c2cc(-c3ccc(F)cc3)on2)Cc2cnc([C@@](C)(O)C(F)(F)F)n21` [Example 26], the IC50 on human PDHK1 (hPDHK1) was 9 nM; at human PDHK2 (hPDHK2) it was 14 nM.
As to `C[C@H]1CN(C(=O)c2ccn(C3CC3)n2)Cc2onc([C@@](C)(O)C(F)(F)F)c21` [Example 110], the IC50 on human PDHK1 (hPDHK1) came out at 7 nM; on human PDHK2 (hPDHK2), 13 nM.
In the case of `C[C@H]1CN(C(=O)c2cc(-c3ccc(F)cc3)ccn2)Cc2cnc([C@@](C)(O)C(F)(F)F)n21` [Example 55], the figures for the IC50 on human PDHK1 (hPDHK1) and on human PDHK2 (hPDHK2) were less than 3 nM and 4 nM, respectively. Further, the inhibition at 0.003 µM on human PDHK1 (hPDHK1) was 54%.
In the case of `C[C@H]1CN(C(=O)c2cc(C3CC3)on2)Cc2cnc([C@@](C)(O)C(F)(F)F)n21` [Example 21], the figures for the IC50 at human PDHK1 (hPDHK1) and on human PDHK2 (hPDHK2) were 13 nM and 12 nM, respectively.
On the same counts, the results for `CC(=O)N1CCc2ccccc2[C@H]1C(=O)N1Cc2onc([C@@](C)(O)C(F)(F)F)c2[C@@H](C)C1` [Example 107] are 5 nM and 6 nM.
Taken in the same sequence, the figures for `Cc1cc(C#N)ccc1-c1cc(C(=O)N2Cc3cnc([C@@](C)(O)C(F)(F)F)n3[C@@H](C)C2)n(C)n1` [Example 75] were 6 nM and 11 nM.
On the same counts, the results for `C[C@H]1CN(C(=O)c2c3cc(F)ccc3nn2C)Cc2cnc([C@@](C)(O)C(F)(F)F)n21` [Example 1] are 6 nM and 5 nM.
On to `C[C@H]1CN(C(=O)c2ccc(F)c(-c3ccc(C#N)cn3)c2)Cc2cnc([C@@](C)(O)C(F)(F)F)n21` [Example 58], for which the IC50 at human PDHK1 (hPDHK1) is 3 nM; on human PDHK2 (hPDHK2), 4 nM.
Consider `C[C@H]1CN(C(=O)c2n[nH]c3c2CCC(C)(C)C3)Cc2onc([C@@](C)(O)C(F)(F)F)c21` [Example 103], for which, at human PDHK1 (hPDHK1), the IC50 is less than 3 nM and the inhibition at 0.003 µM is 67%. At human PDHK2 (hPDHK2), the IC50 was less than 3 nM. The “hPDHK2 inhibitory rate at the lowest concentration of the test compound” value on human PDHK2 (hPDHK2) (lowest concentration of the test compound in the assay (<3 nmol/L), shown when IC50 value could not be calculated) is 66%.
In the case of `C[C@H]1CN(C(=O)c2cc(C3(C)CC3)n(C)n2)Cc2onc([C@@](C)(O)C(F)(F)F)c21` [Example 119], the IC50 on human PDHK1 (hPDHK1) was 4 nM; at human PDHK2 (hPDHK2) it was 5 nM.
Taken in the same sequence, the figures for `C[C@H]1CN(C(=O)c2c3cc(F)c(F)cc3nn2C)Cc2cnc([C@@](C)(O)C(F)(F)F)n21` [Example 9, (5,6-difluoro-2-methyl-2H-indazol-3-yl) ((S)-5-methyl-3-((R)-1,1,1-trifluoro-2-hydroxypropan-2-yl)-5,6-dihydroimidazo[1,5-a]pyrazin-7(8H)-yl)methanone] were 7 nM and 11 nM.
For the molecule `C[C@H]1CN(C(=O)c2cccc3[nH]ncc23)Cc2onc([C@@](C)(O)C(F)(F)F)c21` [Example 102], the IC50 at human PDHK1 (hPDHK1) and on human PDHK2 (hPDHK2) was 4 nM throughout.
For `C[C@H]1CN(C(=O)c2nc3ccc(F)cc3o2)Cc2cnc([C@@](C)(O)C(F)(F)F)n21` [Example 2], the IC50 at human PDHK1 (hPDHK1) was 12 nM; at human PDHK2 (hPDHK2) it was 15 nM.
Taken in the same sequence, the figures for `C[C@H]1CN(C(=O)c2cn(C)nc2C2CC2)Cc2onc([C@@](C)(O)C(F)(F)F)c21` [Example 121] were 5 nM and 5 nM.
On the same counts, the results for `C[C@H]1CN(C(=O)c2ccnc(-c3ccc(F)cc3F)c2)Cc2cnc([C@@](C)(O)C(F)(F)F)n21` [Example 88] are 3 nM and 4 nM.

One may read the IC50 as the concentration that gives 50% inhibition.
